From publication PMC4124913 (Bioorganic & medicinal chemistry, 2013)

Assays:
Bcr-Abl = Bcr-Abl (Homo sapiens, UniProt P00519); assay: Bcr-Abl kinase assay; settings: for ΔΔGbind (exptl): RT ln [IC50(cmpd)/IC50(11a)], 298 K
[1] = tested on: K562 cells expressing Abl; assay: In vitro radiotracer accumulation, washout and blocking in K562 cells; format: cell-based, human; settings: cell cultures, excess cold STI-571

Bcr-Abl, sequence (P00519 whole entry): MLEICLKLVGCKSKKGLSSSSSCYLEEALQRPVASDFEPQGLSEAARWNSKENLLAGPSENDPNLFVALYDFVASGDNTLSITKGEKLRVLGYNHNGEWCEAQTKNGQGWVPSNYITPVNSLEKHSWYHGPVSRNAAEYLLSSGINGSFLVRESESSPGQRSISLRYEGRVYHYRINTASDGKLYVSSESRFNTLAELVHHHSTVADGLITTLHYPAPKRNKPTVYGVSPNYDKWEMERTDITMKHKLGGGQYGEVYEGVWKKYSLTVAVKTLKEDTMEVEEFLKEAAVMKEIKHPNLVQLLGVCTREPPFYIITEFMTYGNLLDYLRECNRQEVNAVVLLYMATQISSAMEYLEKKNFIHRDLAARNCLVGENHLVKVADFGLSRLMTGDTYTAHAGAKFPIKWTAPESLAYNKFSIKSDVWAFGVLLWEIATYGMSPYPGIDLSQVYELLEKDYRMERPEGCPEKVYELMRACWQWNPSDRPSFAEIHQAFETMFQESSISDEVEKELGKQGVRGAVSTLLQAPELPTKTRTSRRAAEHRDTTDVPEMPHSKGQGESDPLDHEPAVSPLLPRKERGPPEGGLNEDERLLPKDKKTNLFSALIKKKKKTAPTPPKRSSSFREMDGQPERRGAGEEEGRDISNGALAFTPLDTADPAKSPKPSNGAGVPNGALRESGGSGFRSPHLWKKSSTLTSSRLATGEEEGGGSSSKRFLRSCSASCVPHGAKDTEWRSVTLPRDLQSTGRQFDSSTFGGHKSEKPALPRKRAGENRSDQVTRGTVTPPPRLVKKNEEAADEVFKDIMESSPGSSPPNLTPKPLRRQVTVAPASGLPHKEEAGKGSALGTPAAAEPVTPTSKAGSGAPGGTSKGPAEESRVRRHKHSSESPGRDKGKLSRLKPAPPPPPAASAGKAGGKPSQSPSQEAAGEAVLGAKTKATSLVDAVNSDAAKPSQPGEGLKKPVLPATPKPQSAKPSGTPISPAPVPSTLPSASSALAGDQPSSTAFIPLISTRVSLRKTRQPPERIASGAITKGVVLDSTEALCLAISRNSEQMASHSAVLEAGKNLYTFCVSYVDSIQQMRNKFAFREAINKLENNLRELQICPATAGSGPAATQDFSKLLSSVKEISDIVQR

| SMILES | IC50 (Bcr-Abl) | ΔΔGbind (exptl) (Bcr-Abl) | binding on addition of excess STI-571 (blocking) [1] |
| --- | --- | --- | --- |
| Cc1ccc(NC(=O)c2ccc(CN3CCN(CCF)CC3)cc2)cc1Nc1nccc(-c2cccnc2)n1 [Compound 11b] | 1.3 µM | 1.47 kcal/mol |  |
| Cc1ccc(NC(=O)c2ccc(CN3CCN(CCO)CC3)cc2)cc1Nc1nccc(-c2cccnc2)n1 [Compound 11c] |  | 2.44 kcal/mol |  |
| Cc1ccc(NC(=O)c2ccc(CN3CCN(Cc4ccc(I)cc4)CC3)cc2)cc1Nc1nccc(-c2cccnc2)n1 [Compound 11e] |  | 1.10 kcal/mol |  |
| Cc1ccc(NC(=O)c2ccc(CN3CCN(CC[18F])CC3)cc2)cc1Nc1nccc(-c2cccnc2)n1 [Compound 11g] |  |  | diminished as excess STI-571 was added |
